Measurements reported in US9018260B2, “Indanesulfamide derivatives” (Eisai R&D Management Co., Ltd., priority 2012, dated 2015).

What was measured:
[1] = test system: corneal kindled male C57Bl/6 mice; assay: Mouse corneal kindling model; type: in vivo; details: for ED50: Mus musculus, dosage where 50% of animals showed seizure severity score 2 or less; for Seizure severity score (Average): Racine's scale
Text: Male C57Bl/6 mice were stimulated twice daily for 10 days. The electric-stimulations with current intensities of 4.0 mA and duration of 3 s (pulse frequency 50 Hz) were applied via corneally placed saline-soaked copper electrodes.
Seizure severity was ranked according to a modified scoring system of the Racine's scale (Clin. Neurophysiol. 1972:32:281-294): Score 1, mild facial clonus and eye blinking; 2, severe facial clonus, head nodding, chewing; 3, unilateral or alternating forelimb clonus; 4, bilateral forelimb clonus with rearing; 5, bilateral forelimb clonus with rearing and falling; 6, tonic fore- and/or hindlimb extension. The fully kindled animals with the severity score 4 or more were used for evaluation.
Test compounds were dissolved in the vehicle (0.45% methyl cellulose/4.5% cremophor/10% DMSO), then orally (p.o.) or intraperitoneally (i.p.) administered to mice. The vehicle was orally administered as controls.
Electric stimulation was applied at 1 hour after p.o. or 20 minutes after i.p administration. Stimulation parameters were the same as during the kindling process. After electric stimulation, seizure severity was recorded for 30 seconds according to the Racine's scale.
Four to ten animals were used for calculation of average seizure severity score at each dose.

male ddY mice [2] = assay: Rota rod test; type: in vivo, mouse; details: route p.o.; TD50 in rota rod test divided by ED50 in corneal kindling model
Procedure: (§1) Rotarod apparatus (Rota-rod MK-660C, Muromachi-Kikai Co., Ltd.) was used for measurement. The motor was turned on and the rod rotation was continuously accelerated to a rate of 40 rpm over 180 sec.
(§2) Male ddY mice at an age of 5 weeks (Japan SLC) were used. On the experiment day, the mice were pretrained and only the animals able to remain on the rod for at least 60 s were selected for experiment.
(§3) Test compounds were dissolved in the vehicle (0.45% methyl cellulose/4.5% cremophor/10% dimethyl sulfoxide), then orally (p.o.) administered to mice. The vehicle was orally administered as controls. The effects of compounds were studied in groups of six to ten animals.
(§4) Latency for mice to fall off from the rod was measured. The toxic dose at which fall off latency shorten by 50% of vehicle control value (TD50) was calculated.
(§5) Therapeutic index were calculated by dividing the respective TD50 value in rota rod test by the ED50 value determined in the corneal kindling model.

Rota rod test [3] = type: in vivo, mouse; details: male, ddY, mouse, in vivo, po; dose at which fall off latency shorten by 50% of vehicle control value
Procedure: as §1, §2, §3, §4, §5

[4] = test system: amygdala kindled male Wistar Kyoto rats; assay: Rat amygdala kindling model; type: in vivo; details: oral, 60 minutes after administration; FIGS. 1 to 3
Procedure: Male Wistar Kyoto rats (Charles River Japan) were used for the experiment. For implantation of kindling electrodes, rats were anesthetized with pentobarbital (65 mg/kg i.p.) and a tripolar electrode was implanted into the right hemisphere aimed at the basolateral amygdala using the coordinates derived from the atlas of Paxinos and Watson. Electrical stimulation of the amygdala was initiated following a recovery period of one week after surgery. […]
The threshold for induction of amygdala after discharges (ADT), i.e., epileptiform spikes on electroencephalogram (EEG), was measured for anti-seizure potency of compounds. In fully kindled rats, the ADT was determined by administering a series of stimulations beginning at […] and increasing in steps of about 25% of the previous current. […]
In the afternoon, test compounds were dissolved in the vehicle (a 1:1:1 mixture of polyethylene glycol 200, distilled water and DMSO), then orally administered to rats. […] The ADT was determined again 60 minutes after administration of drugs. The % of pre-value (morning results) was determined for each rat. Results were expressed as mean±SEM and analyzed by Dunnett's multiple comparisons test. […]

male ddY mice [5] = assay: Rota rod test; type: in vivo, mouse; details: route i.p; TD50 in rota rod test divided by ED50 in corneal kindling model
Rota rod test [6] = type: in vivo, mouse; details: male, ddY, mouse, in vivo, intraperitoneal; route i.p; dose at which fall off latency shorten by 50% of vehicle control value
[7] = dose 10 mg/kg, p.o., stimulation 1 hour after administration
[8] = dose 25 mg/kg, p.o., stimulation 1 hour after administration
[9] = dose 50 mg/kg, p.o., stimulation 1 hour after administration
[10] = dose 10 mg/kg, i.p., stimulation 20 minutes after administration
[11] = dose 25 mg/kg, i.p., stimulation 20 minutes after administration

Structure (SMILES)	ED50 ([1]; po) [mg/kg]	Seizure severity score (Average) [1, 7]	Seizure severity score (Average) [1, 8]	Therapeutic index (male ddY mice [2])	TD50 (Rota rod test [3]) [mg/kg]	Seizure severity score (Average) [1, 9]	after-discharge threshold (ADT), % of pre-value [4]	Seizure severity score (Average) [1, 10]	Seizure severity score (Average) [1, 11]	Therapeutic index (male ddY mice [5])	TD50 (Rota rod test [6]) [mg/kg]	ED50 ([1]; ip, route i.p) [mg/kg]
Cc1cc(F)cc2c1[C@H](NS(N)(=O)=O)C(F)(F)C2 [Example 12, N-[(1S)-2,2,5-Trifluoro-7-methyl-2,3-dihydro-1H-inden-1-yl]sulfamide]	5.6	0	0	25.5	143							
NS(=O)(=O)N[C@H]1CCc2c(F)ccc(F)c21 [Example 19, N-[(1S)-4,7-difluoro-2,3-dihydro-1H-inden-1-yl]sulfamide]	12.4	2	0	19.0	235							
NS(=O)(=O)NC1c2c(Cl)cc(F)cc2CC1(F)F (single isomer, unassigned; (-)) [Example 6, (−)-N-(7-chloro-2,2,5-trifluoro-2,3-dihydro-1H-inden-1-yl)sulfamide]	10.2	1	0	30.1	307	0.25	dose-dependent elevation of after-discharge threshold					
NS(=O)(=O)N[C@H]1CCc2cc(F)cc(Cl)c21 [Example 21, N-[(1S)-7-chloro-5-fluoro-2,3-dihydro-1H-inden-1-yl]sulfamide]	10.6			22.1	234			4.25	2			
NS(=O)(=O)NC1CCc2ccccc21 (stereo not drawn) [Reference compound, reference compound]	40	4.67	3.17	5.27	211	1.33						
NS(=O)(=O)N[C@H]1c2c(F)cc(F)cc2CC1(F)F [Example 1, N-[(1S)-2,2,5,7-tetrafluoro-2,3-dihydro-1H-inden-1-yl]sulfamide]	7.9	2	0	49.4	390	0						
NS(=O)(=O)NC1c2c(Cl)cccc2CC1(F)F (single isomer, unassigned; (-)) [Example 8, (−)-N-(7-chloro-2,2-difluoro-2,3-dihydro-1H-inden-1-yl)sulfamide]								3	0	11.2	119	10.6
Cc1cccc2c1[C@H](NS(N)(=O)=O)C(F)(F)C2 [Example 11, N-[(1S)-2,2-Difluoro-7-methyl-2,3-dihydro-1H-inden-1-yl]sulfamide]	5	0.5	0	26.4	132		dose-dependent elevation of after-discharge threshold					
